Test results as given in patent publication US7988944B2, “Peroxide decomposition catalyst” (Sumitomo Chemical Company, Limited, priority 2005, dated 2011).

Key:
[1] = Solubility test of catalyst in DMF; type: physicochemical; conditions: for Weight of peroxide decomposition catalyst residue which remained undissolved in DMF: about 20 mg catalyst, DMF 5.00 ml in total, residue on filter paper dried and weighed; for Solubility: catalyst 20.0±0.1 mg in 5.0 ml DMF, equation 3; for solubility (in words): from Table 1, DMF
Experimental: Herein, as an index of solubility in a peroxide decomposition catalyst, solubility of a peroxide decomposition catalyst (20.0±0.1 mg) in a constant amount (5.0 ml) of dimethylformamide (hereinafter abbreviated as DMF) can be used. The solubility as used herein is represented by the following (equation 3).
First, a filter paper (No 5B φ21 m/m) for Kiriyama funnel was dried (100° C., under 200 pa reduced pressure, 6 h), and this was weighed. Then, a peroxide decomposition catalyst (20.0±0.1 mg) and DMF (2.00 ml) were weighed in a 8 ml glass sample tube containing a stirrer, and this was stirred with a magnetic stirrer for 5 minutes. This mixture was transferred with a 2 ml pipette to a glass Kiriyama funnel (φ21 mm) in which the dried filter paper was spread, and this was suction-filtered. The sample tube, the stirrer and the pipette which were used, were washed with DMF several times (total amount 3.00 ml), and the attached catalyst and DMF washing solution were transferred to the Kiriyama funnel, and these were suction-filtered together. Thereafter, the residue on the filter paper, and the filter paper together with the Kiriyama funnel were dried (100° C., under 200 pa reduced pressure, 24 h) in a vacuum oven. After drying, the filter paper, and the residue on the filter paper were weighed, and a dry filter paper weight before filtration was subtracted from this weight to obtain a weight of the peroxide decomposition catalyst residue which remained undissolved in DMF. From this, solubility indicated by the (equation 3) was calculated.

[2] = Hydrogen peroxide decomposition test in the presence of poly(sodium 4-styrenesulfonate); conditions: 80° C.; for V(O2), generated oxygen volume: 20 minutes, pH4.0 tartrate buffer/ethylene glycol, 2.28 mmol H2O2, blank corrected, 0° C. and 101325 Pa; for N(O2), mole number of oxygen molecule generated per 20 minutes: oxygen regarded as ideal gas
Experimental: To a mixture of 8.41 μmol (per one metal atom) of a catalyst and 21.1 mg of poly(sodium 4-styrenesulfonate) (product commercially available from Aldrich, weight average molecular weight: about 70,000) are added 1.00 ml of a tartaric acid/sodium tartrate buffer (pH4.0) and 1.00 ml of ethylene glycol. After this catalyst mixture is stirred at 80° C. for 5 minutes, 0.20 ml of an 11.4 mol/l aqueous hydrogen peroxide solution is added, and the mixture is stirred at 80° C. for 20 minutes. A volume of oxygen generated thereupon is measured with a gas burette, and an amount of decomposed hydrogen peroxide is calculated. Thereafter, this reaction solution is diluted and filtrated, and the filtrate is measured by gel permeation chromatography (GPC), thereby, a weight average molecular weight of poly(sodium 4-styrenesulfonate) after a test is obtained. The GPC analysis condition will be shown below. Column: TSKgel α-M (13 μm, 7.8 mmφ×30 cm) manufactured by Tosoh Corporation, column temperature: 40° C., mobile phase: 50 mmol/l aqueous ammonium acetate solution: CH3CN=7:3 (v/v), flow rate: 0.6 ml/min, detector: RI, injection amount: 50 μl. A weight average molecular weight was obtained as a value in terms of polyethylene oxide. The A value is obtained by the (equation 1), and the B value is obtained by the (equation 2).
Mn-bbpr (4.90 mg, 8.41 μmol (per one metal atom)), and poly(sodium 4-sutyrenesulfonate)(21.1 mg (product commercially available from Aldrich, weight average molecular weight: about 70,000)) were weighed in a two-necked flask (25 ml), and a tartaric acid/sodium tartrate buffer (1.00 ml (prepared from 0.20 mol/l tartaric acid aqueous solution and 0.10 mol/l sodium tartrate aqueous solution, pH4.0)) and ethylene glycol (1.00 ml) as a solvent were added thereto, followed by stirring. This was used as a catalyst mixed solution.
Septum was attached to one of inlets of the two-necked flask containing this catalyst mixed solution, and the other inlet was collected to a gas burette. This flask was stirred at 80° C. for 5 minutes, a hydrogen peroxide aqueous solution (11.4 mol/l, 0.20 ml (2.28 mmol)) was added via a syringe, and a hydrogen peroxide decomposition reaction was performed at 80° C. for 20 minutes. Generated oxygen was measured with a gas burette, and decomposed hydrogen peroxide was quantitated. An amount of generated oxygen was corrected based on the following blank test. Thereafter, the reaction solution was diluted with a water/acetonitrile mixed solution (water:acetonitrile=7:3 (v/v)) to a solution amount of 10.0 ml, and this solution was filtered with a syringe filter. This filtrate was GPC-measured, and a weight average molecular weight of poly (sodium 4-sutyrenesulfonate) after a test was obtained.
Poly(sodium 4-styrenesulfonate) after the hydrogen peroxide decomposition test was GPC-analyzed. The analyzing conditions are shown below. Column: TSKgel α-M (13 μm, 7.8 mmφ×30 cm) manufactured by Tosoh Corporation, column temperature: 40° C., mobile phase: 50 mmol/l ammonium acetate aqueous solution: CH3CN=7:3 (v/v), flow rate: 0.6 ml/min, detector: RI, in injection amount: 50 μl. A weight average molecular weight was obtained as a value in terms of polyethylene oxide.
An amount of decomposed hydrogen peroxide was obtained from a volume of oxygen generated in the hydrogen peroxide decomposition test.

Weight of peroxide decomposition catalyst residue which remained undissolved in DMF [1] | Solubility [1] | solubility (in words) [1] | Compound | V(O2), generated oxygen volume [2] | N(O2), mole number of oxygen molecule generated per 20 minutes [2]
17.5 mg | 12.9% | low solubility | [Co+2].c1ccc2c(c1)-c1nc-2nc2[n-]c(nc3nc(nc4[n-]c(n1)c1ccccc41)-c1ccccc1-3)c1ccccc21 [Cobalt phthalocyanine, cobalt phthalocyanine] | 4.9 mL | 0.219 mmol
17.3 mg | 13.1% | low solubility | [Cu+2].c1ccc2c(c1)-c1nc-2nc2[n-]c(nc3nc(nc4[n-]c(n1)c1ccccc41)-c1ccccc1-3)c1ccccc21 [Copper phthalocyanine, copper phthalocyanine] | 0.00 mL | 0.00 mmol
0.03 mg | 99.8% | high solubility | CC(C)(C)c1ccc2c(c1)C1=Nc3c4cc(C(C)(C)C)ccc4c4[n]3[Fe][n]3c(c5ccc(C(C)(C)C)cc5c3=NC3=NC(=N4)c4cc(C(C)(C)C)ccc43)=NC2=N1 [Fe-pcy (^tBu)] | 1.40 mL | 0.0625 mmol
17.9 mg | 11.0% | low solubility | [Fe+2].c1ccc2c(c1)-c1nc-2nc2[n-]c(nc3nc(nc4[n-]c(n1)c1ccccc41)-c1ccccc1-3)c1ccccc21 [Iron phthalocyanine, iron phthalocyanine] | 14.33 mL | 0.64 mmol
16.5 mg | 17.8% | low solubility | O.O.[Na+].[Na+].[O]=[W](=[O])([O-])[O-] [Sodium tungstate dihydrate] |  | 
